Where a name gives a salt, the structure may show the parent alone. Read-outs that look alike come from different tables or passages of the source.
Columns and labels:
PDE7A1 = molecular target: T1, PDE7A1 (Homo sapiens, UniProt Q13946); test: Determination of PDE7 inhibition (SPA, [3H]cAMP); type: biochemical; details: for IC50: read-out: IC50 (PDE7A)
T1 construct: purchased Calbiochem 524751
Method: PDE-7 inhibition was performed with a commercial kit for the determination of phosphodiesterase activity (GE Healthcare Life Sciences, cat#TRKQ7090).
The compounds to be evaluated were incubated (in concentrations between 0.1 nM and 100 μM) in presence of 0.02 U/well of PDE7A1 (Calbiochem cat#524751) and 0.05 μCi of [^3H] cAMP, for 20 min at 30° C. in the assay buffer of kit (total volume=100 μl).
After this time, 50 μl of a suspension of 20 mg/ml microspheres of SPA of Ytrium silicate were added and was maintained under stirring at room temperature for 60 min. Finally, the plate was settled for 20 min and radioactivity was detected in a Microbeta Trilux reader.
In every assay there were included two points without PDE7A1 (blank) and two points with PDE7A1 without inhibitors (control).
Data Analysis: All the compounds were evaluated firstly at the concentration of 10 μM and the percentage of PDE7A1 inhibition was calculated, according to the following formula (cpm=counts per minute): % Inhibition=((cpm control−cpm sample)×100)/(cpm control−cpm blank assay).
For those compounds with % inhibition values above 45% it was calculated its inhibitory potency (IC50) building the dose-response curve.
The data were adjusted with the software Prism v 2.1 (GraphPad Software) using the non lineal fitting.

in vitro = test: in vitro
Method: Ten commercial reference drugs, phosphate buffer saline solution at pH 7.4 (PBS), DMSO and dodecane were purchased from Sigma, Acros organics, Aldrich and Fluka. […] Filter PDVF membrane units (diameter 30 mm, pore size 0.45 μm) from Symta were used to filtered the samples. A 96-well plate UV reader (Thermoscientific, Multiskan spectrum) was used for the UV measurements. […] These solutions were filtered. The acceptor 96-well microplate was filled with 180 μL of PBS:DMSO (95:5). The donor 96-well plate was coated with 4 μL of porcine brain lipid in dodecane (20 mg mL^−1) and after 5 minutes, 180 μL of each compound solution was added. 1-2 mg of every compound to be determined their ability to pass the BBB were dissolved in 250 μL of DMSO and 4750 μL of PBS pH 7.4 buffer, filtered and then added to the donor 96-well plate. Then the donor plate was carefully put on the acceptor plate to form a “sandwich”, which was left undisturbed for 4 h at 25° C.
During this time the compounds diffused from the donor plate through the brain lipid membrane into the acceptor plate. After incubation, the donor plate was removed. The concentration of compounds and commercial drugs in the acceptor and the donor wells was determined by UV plate reader. Every sample was analyzed from three to five wavelengths, in 3 wells and in at least three independent runs. […] 11 quality control compounds (previously mentioned) of known BBB permeability were included in each experiment to validate the analysis set.

[1] = 1,2,4-thiadiazoles-5-imino substituted as hydrobromides
[2] = 1,2,4-thiadiazoles-5-imino substituted as hydrochlorides

T1 sequence (Q13946 whole entry): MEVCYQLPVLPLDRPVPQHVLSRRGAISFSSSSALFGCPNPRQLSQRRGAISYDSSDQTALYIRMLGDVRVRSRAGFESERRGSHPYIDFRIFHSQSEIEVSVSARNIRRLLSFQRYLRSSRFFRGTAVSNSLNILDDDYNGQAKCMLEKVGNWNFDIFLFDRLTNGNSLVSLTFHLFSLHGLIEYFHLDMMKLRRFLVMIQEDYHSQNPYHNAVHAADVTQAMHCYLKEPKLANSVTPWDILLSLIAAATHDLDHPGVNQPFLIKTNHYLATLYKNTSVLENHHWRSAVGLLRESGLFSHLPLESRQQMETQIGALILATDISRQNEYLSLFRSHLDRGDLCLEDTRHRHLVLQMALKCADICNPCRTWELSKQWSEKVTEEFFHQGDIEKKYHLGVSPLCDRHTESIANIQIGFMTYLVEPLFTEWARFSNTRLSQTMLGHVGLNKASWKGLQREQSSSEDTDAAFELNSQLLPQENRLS

| SMILES | IC50 (PDE7A1; [1]) | Papp at 4 h (in vitro; PAMPA, pH 7.4) | Prediction (predictive penetration in the CNS) (in vitro; PAMPA) | further results |
| --- | --- | --- | --- | --- |
| c1ccc(-n2sc(=NCc3cccnc3)nc2-c2cccc3ccccc23)cc1 [3-(1-Naphthyl)-2-phenyl-5-(3-pyridylmethylimino)-2,5-dihydro-1,2,4-thiadiazole hydrochloride] | – | – | – | IC50 (PDE7A1; [2]): 1500 nM |
| CCCCCN=c1nc(-c2ccc(OC)cc2)n(-c2ccccc2)s1 [3-(4-Methoxyphenyl)-5-pentylimino-2-phenyl-2,5-dihydro-1,2,4-thiadiazole hydrobromide] | 810 nM | – | – | – |
| CCCCCN=c1nc(-c2ccc(OC)cc2)n(-c2ccccc2)s1 [3-(4-Methoxyphenyl)-5-pentylimino-2-phenyl-2,5-dihydro-1,2,4-thiadiazole hydrochloride] | – | – | – | IC50 (PDE7A1; [2]): 3700 nM |
| FC(F)(F)c1ccc(-c2nc(=NCc3cccnc3)sn2-c2ccccc2)cc1 [3-(4-Trifluoromethylphenyl)-2-phenyl-5-(3-pyridylmethylimino)-2,5-dihydro-1,2,4-thiadiazole dihydrobromide] | – | – | – | inhibition at 10 µM (PDE7A1; read-out: % inhibition of PDE7A at 10 μM, hydrobromides, at 10 μM): 87% |
| c1ccc(-c2nc(=NCCN3CCOCC3)sn2-c2ccccc2)cc1 [5-(2-Morpholinethylimino)-2,3-diphenyl-2,5-dihydro-1,2,4-thiadiazole dihydrobromide] | 1590 nM | – | – | – |
| CCOC(=O)CN=c1nc(-c2ccccc2)n(-c2ccc([N+](=O)[O-])cc2)s1 [5-Ethoxycarbonylmethylimino-2-(4-nitrophenyl)-3-phenyl-2,5-dihydro-1,2,4-thiadiazole hydrobromide] | 790 nM | – | – | – |
| CC(C)NCC(O)COc1ccc(CC(N)=O)cc1 (stereo not drawn) [Atenolol, reference compound] | – | – | – | Pe (10^−6 cm s^−1) (in vitro; pig, PAMPA, 4 h, pH 7.4): 0.8 ± 1.1 10^−6 cm s^−1 |
| CCn1cc(C(=O)O)c(=O)c2cc(F)c(N3CCNCC3)nc21 [Enoxacin, reference compound] | – | – | – | Pe (10^−6 cm s^−1) (in vitro; pig, PAMPA, 4 h, pH 7.4): 0.9 ± 0.5 10^−6 cm s^−1 |
| CN1C(C(=O)Nc2ccccn2)=C(O)c2ccccc2S1(=O)=O [Piroxicam, reference compound] | – | – | – | Pe (10^−6 cm s^−1) (in vitro; PBS:DMSO (95:5) as solvent, 4 h at 25° C., mean ± SD of at least 3 independent experiments): 2.2 ± 0.9 10^−6 cm s^−1 |
| CN(C)CCCN1c2ccccc2Sc2ccccc21 [Promazine, reference compound] | – | 9.7 ± 1.5 ×10⁻⁶ cm/s | – | – |
| CCOC(=O)CN=c1nc(-c2ccccc2)n(-c2ccccc2)s1 [R1=Ph, R2=Ph, R3=CH2CO2Et (free base), 5-Ethoxycarboximethylimino-2,3-diphenyl-2,5-dihydro-1,2,4-thiadiazole] | – | – | – | % inhibition of PDE7A at 10 μM (PDE7A1; free bases, at 10 μM): 6%@10 |
| c1ccc(-c2nc(=NC3CCCCC3)sn2-c2ccccc2)cc1 [R1=Ph, R2=Ph, R3=Cy (hydrobromide)] | 1640 nM | – | – | – |
| N=c1nc(-c2ccccc2)n(-c2ccccc2)s1 [R1=Ph, R2=Ph, R3=H (hydrobromide)] | 1020 nM | – | – | – |
| c1ccc(N=c2nc(-c3ccccc3)n(-c3ccccc3)s2)cc1 [R1=Ph, R2=Ph, R3=Ph (free base), 2,3-Diphenyl-5-phenylimino-2,5-dihydro-1,2,4-thiadiazole] | – | – | – | IC50 (PDE7A1; 1,2,4-thiadiazoles-5-imino substituted as free bases): 3520 nM |
| CCCCCN=c1nc(-c2ccccc2)n(-c2ccccc2)s1 [R1=Ph, R2=Ph, R3=n-Pent (hydrobromide), 5-Pentylimino-2,3-diphenyl-2,5-dihydro-1,2,4-thiadiazole hydrobromide] | 1440 nM | – | – | – |
| Br.OCCN=c1nc(-c2ccccc2)n(-c2ccccc2)s1 [VP-1.15, 5-(2-Hydroxyethylimino)-2,3-diphenyl-2,5-dihydro-1,2,4-thiadiazole hydrobromide] | 1110 nM | 15.4 ± 2 ×10⁻⁶ cm/s | CNS+ | – |
| Br.CCOC(=O)CN=c1nc(-c2ccccc2)n(-c2ccccc2)s1 [VP-1.16, 5-Ethoxycarbonylmethylimino-2,3-diphenyl-2,5-dihydro-1,2,4-thiadiazole hydrobromide] | 1130 nM | 6.2 ± 0.4 ×10⁻⁶ cm/s | CNS+ | – |
| Br.COc1ccc(-c2nc(=NCCO)sn2-c2ccccc2)cc1 [VP-1.40, 5-(2-Hydroxyethylimino)-3-(4-methoxyphenyl)-2-phenyl-2,5-dihydro-1,2,4-thiadiazole hydrobromide] | 1500 nM | 13.7 ± 0.8 ×10⁻⁶ cm/s | CNS+ | – |
| Br.COc1ccc(-n2sc(=NCCO)nc2-c2ccccc2)cc1 [VP-1.61, 5-(2-Hydroxyethylimino)-2-(4-methoxyphenyl)-3-phenyl-2,5-dihydro-1,2,4-thiadiazole hydrobromide] | 1180 nM | 13.7 ± 1 ×10⁻⁶ cm/s | CNS+ | – |
| Br.CCOC(=O)CN=c1nc(-c2ccccc2)n(-c2ccc(OC)cc2)s1 [VP-1.62, 5-Ethoxycarbonylmethylimino-2-(4-methoxyphenyl)-3-phenyl-2,5-dihydro-1,2,4-thiadiazole hydrobromide] | 780 nM | 4 ± 0.8 ×10⁻⁶ cm/s | CNS+/CNS− | – |
| Br.CCOC(=O)CN=c1nc(-c2ccc(OC)cc2)n(-c2ccccc2)s1 [VP-1.65, 5-Ethoxycarbonylmethylimino-3-(4-methoxyphenyl)-2-phenyl-2,5-dihydro-1,2,4-thiadiazole hydrobromide] | 890 nM | 3.8 ± 0.2 ×10⁻⁶ cm/s | CNS+/CNS− | – |
| OCCN=c1nc(-c2ccccc2)n(-c2ccccc2)s1 [VP-2.3, 5-(2-Hydroxyethylimino)-2,3-diphenyl-2,5-dihidro-1,2,4-thiadiazole hydrochloride] | – | 15 ± 2 ×10⁻⁶ cm/s | CNS+ | IC50 (PDE7A1; [2]): 1970 nM |
| Br.OCCN=c1nc(-c2cccc3ccccc23)n(-c2ccccc2)s1 [VP-2.33, 5-(2-Hydroxyethylimino)-3-(1-naphthyl)-2-phenyl-2,5-dihydro-1,2,4-thiadiazole hydrobromide] | 1240 nM | 10.2 ± 0.6 ×10⁻⁶ cm/s | – | Prediction (predictive penetration in the CNS) (in vitro; PAMPA-BBB): CNS+ |

Second part, led by results:

| IC50 (PDE7A1; [1]) | Papp at 4 h (in vitro; PAMPA, pH 7.4) | Prediction (predictive penetration in the CNS) (in vitro; PAMPA) | SMILES | further results |
| --- | --- | --- | --- | --- |
| 870 nM | – | – | c1ccc(-c2nc(=NCc3cccnc3)sn2-c2cccc3ccccc23)cc1 [2-(1-Naphthyl)-3-phenyl-5-(3-pyridylmethylimino)-2,5-dihydro-1,2,4-thiadiazole dihydrobromide] | – |
| 840 nM | – | – | O=[N+]([O-])c1ccc(-n2sc(=NCc3cccnc3)nc2-c2ccccc2)cc1 [2-(4-Nitrophenyl)-3-phenyl-5-(3-pyridinylmethylimino)-2,5-dihydro-1,2,4-thiadiazole dihydrobromide] | – |
| 1080 nM | – | – | c1ccc(-n2sc(=NCc3cccnc3)nc2-c2cccc3ccccc23)cc1 [3-(1-Naphthyl)-2-phenyl-5-(3-pyridylmethylimino)-2,5-dihydro-1,2,4-thiadiazole dihydrobromide] | – |
| 2200 nM | – | – | OCCN=c1nc(-c2ccccc2)n(-c2cccc3ccccc23)s1 [5-(2-Hydroxyethylimino)-2-(1-naphthyl)-3-phenyl-2,5-dihydro-1,2,4-thiadiazole hydrobromide] | – |
| 3030 nM | – | – | c1ccc(N=c2nc(-c3ccccc3)n(-c3ccccc3)s2)cc1 [R1=Ph, R2=Ph, R3=Ph (hydrobromide), 2,3-Diphenyl-5-phenylimino-2,5-dihydro-1,2,4-thiadiazole hydrobromide] | – |
| 4360 nM | – | – | COc1ccc(-c2nc(=Nc3ccccc3)sn2-c2ccccc2)cc1 [R1=pOMePh, R2=Ph, R3=Ph (hydrobromide)] | – |
| 380 nM | 10.7 ± 0.3 ×10⁻⁶ cm/s | CNS+ | Br.Br.c1ccc(-c2nc(=NCc3cccnc3)sn2-c2ccccc2)cc1 [VP-1.14, 2,3-Diphenyl-5-(3-pyridinylmethylimino)-2,5-dihydro-1,2,4-thiadiazole dihydrobromide] | – |
| 860 nM | 4.4 ± 0.6 ×10⁻⁶ cm/s | CNS+ | Br.Br.COc1ccc(-c2nc(=NCc3cccnc3)sn2-c2ccccc2)cc1 [VP-1.43, 3-(4-Methoxyphenyl)-2-phenyl-5-(3-pyridylmethylimino)-2,5-dihydro-1,2,4-thiadiazole dihydrobromide] | – |
| 850 nM | 6.2 ± 0.4 ×10⁻⁶ cm/s | CNS+ | Br.Br.COc1ccc(-n2sc(=NCc3cccnc3)nc2-c2ccccc2)cc1 [VP-1.60, 2-(4-Methoxyphenyl)-3-phenyl-5-(3-pyridinylmethylimino)-2,5-dihydro-1,2,4-thiadiazole dihydrobromide] | – |

From patent publication US9604947B2, “Substituted 5-imino-1,2,4-thiadiazoles that can be used to treat neurodegenerative diseases” (CONSEJO SUPERIOR DE INVESTIGACIONES CIENTIFICAS (CSIC), priority 2009, dated 2017)
